Results reported in the NIST ThermoML archive (doi:10.1016/j.fluid.2015.12.032).

Settings: 101.33 kPa, Liquid, Falling or rolling sphere viscometry

CCCC[N+]1(C)CCOCC1.N#C[C-](C#N)C#N [4-butyl-4-methylmorpholinium tricyanomethanide]
Settings | viscosity [mPa·s]
288.15 K | 500.4
298.15 K | 225.5
308.15 K | 118.4
318.15 K | 69.89
328.15 K | 44.14
338.15 K | 30.31
348.15 K | 21.9
358.15 K | 16.33
368.15 K | 12.77
